Results from ChEMBL document CHEMBL1158392, “Synthesis and biological evaluation of abietic acid derivatives” (Eur J Med Chem, 2009).
Converted amounts (≈) assume the structure as drawn. The source made the active and inactive calls. The calls are words filed in the database; no cut-off is given here.

Legend:
[1] = Selectivity index, ratio of CC50 for african green monkey Vero cells to CC50 for human HeLa cells; type: functional
Aspergillus terreus = experiment: Antifungal activity against Aspergillus terreus CDC 317 upto 100 ug/mL after 48 hrs by CLSI M38-A broth dilution method; type: functional, organism-based
[2] = Cytotoxicity against african green monkey Vero cells after 48 hrs by MTT assay; type: cell-based; details: chlorocebus sabaeus
Candida tropicalis = experiment: Antifungal activity against Candida tropicalis CECT 11901 upto 100 ug/mL after 24 hrs by AFST-EUCAST method; type: functional, organism-based
HeLa [3] = experiment: Cytotoxicity against human HeLa cells after 48 hrs by MTT assay; type: functional
Aspergillus flavus = experiment: Antifungal activity against Aspergillus flavus ATCC 204304 upto 100 ug/mL after 48 hrs by CLSI M38-A broth dilution method; type: functional, organism-based
Human alphaherpesvirus 1 [4] = experiment: Antiviral activity against HSV1 infected in human HeLa cells assessed as maximum dose required for highest viral reduction factor preincubated for 0.5 hrs before infection measured after 36 hrs by end point titration technique; type: functional
Aspergillus niger = experiment: Antifungal activity against Aspergillus niger ATCC 10124 upto 100 ug/mL after 48 hrs by CLSI M38-A broth dilution method; type: functional, organism-based
Aspergillus fumigatus [5] = experiment: Antifungal activity against Aspergillus fumigatus ATCC 204305 after 48 hrs by CLSI M38-A broth dilution method; type: functional; details: ATCC 204305, 48 h
Pichia kudriavzevii = experiment: Antifungal activity against Candida krusei ATCC 6258 upto 100 ug/mL after 24 hrs by AFST-EUCAST method; type: functional, organism-based
Human alphaherpesvirus 1 [6] = experiment: Antiviral activity against HSV1 infected in human HeLa cells assessed as viral reduction factor preincubated for 0.5 hrs before infection measured after 36 hrs by end point titration technique relative to control; type: functional
Candida albicans = experiment: Antifungal activity against Candida albicans ATCC 10231 upto 100 ug/mL after 24 hrs by AFST-EUCAST method; type: functional, organism-based
Candida parapsilosis = experiment: Antifungal activity against Candida parapsilosis ATCC 22019 upto 100 ug/mL after 24 hrs by AFST-EUCAST method; type: functional, organism-based
HeLa [7] = experiment: Cytotoxicity against human HeLa cells; type: cell-based
Aspergillus fumigatus [8] = experiment: Antifungal activity against Aspergillus fumigatus ATCC 204305 upto 100 ug/mL after 48 hrs by CLSI M38-A broth dilution method; type: functional, organism-based

MIC (Aspergillus terreus) | MIC (Candida tropicalis) | MIC (Aspergillus flavus) | MIC (Aspergillus niger) | MIC (Aspergillus fumigatus [5]) [µg/mL] | MIC (Pichia kudriavzevii) | MIC (Candida albicans) | MIC (Candida parapsilosis) | MIC (Aspergillus fumigatus [8]) | SMILES | Selectivity Index [1] | CC50 at 48 h [2] [µg/mL] | CC50 (HeLa [3]) [µg/mL] | Activity (Human alphaherpesvirus 1 [4]) [µg/mL] | Activity (Human alphaherpesvirus 1 [6]) | CC100 (HeLa [7]) [µg/mL]
inactive | inactive | inactive | inactive | 50 (≈ 175 µM) | inactive | inactive | inactive | – | CC(C)C1=CC2=CC[C@@H]3[C@](C)(CCC[C@@]3(C)C=O)[C@H]2CC1 | 5.6 | 31.5 (≈ 110 µM) | 5.6 (≈ 19.5 µM) | 12.5 | 10 | > 50
– | – | – | – | – | – | – | – | – | Nc1nc2c(ncn2COCCO)c(=O)[nH]1 [ACYCLOVIR] | – | – | – | 6 | 10 | > 600
inactive | inactive | inactive | inactive | – | inactive | inactive | inactive | inactive | CC(C)=C1CCC2=C(CC[C@H]3[C@](C)(C(=O)O)CCC[C@]23C)C1 | 0.8 | 43.9 (≈ 145 µM) | 53.1 (≈ 176 µM) | 100 | 10 | > 100
inactive | inactive | inactive | inactive | – | inactive | inactive | inactive | inactive | COC(=O)[C@]1(C)CCC[C@@]2(C)[C@H]1CC=C1C=C(C(C)C)CC[C@@H]12 [METHYL ABIETATE] | 13.7 | 49.4 (≈ 156 µM) | 3.6 (≈ 11.4 µM) | 6.25 | 10 | 50
inactive | inactive | inactive | inactive | – | inactive | inactive | inactive | inactive | CC(C)C1=CC2=CC[C@H]3[C@](C)(CO)CCC[C@]3(C)[C@H]2CC1 | 2.4 | 12.7 (≈ 44 µM) | 5.2 (≈ 18 µM) | 6.25 | 10 | 25
inactive | inactive | inactive | inactive | – | inactive | inactive | inactive | inactive | CC(C)C1=CC2=CC[C@@H]3[C@](C)(CCC[C@@]3(C)C(=O)O)[C@H]2CC1 [ABIETIC ACID] | 3.5 | 52.5 (≈ 174 µM) | 14.9 (≈ 49.3 µM) | – | inactive | > 100
– | – | – | – | – | – | – | – | – | CC[C@]1(O)C[C@H]2CN(CCc3c([nH]c4ccccc34)[C@@](C(=O)OC)(c3cc4c(cc3OC)N(C=O)[C@H]3[C@@](O)(C(=O)OC)[C@H](OC(C)=O)[C@]5(CC)C=CCN6CC[C@]43[C@@H]65)C2)C1 [VINCRISTINE] | 22 | 1.1 (≈ 1.33 µM) | 0.05 (≈ 0.0606 µM) | – | – | –
inactive | inactive | inactive | inactive | – | inactive | inactive | inactive | inactive | CC(C)=C1CCC2=C(CC[C@H]3[C@](C)(C=O)CCC[C@]23C)C1 | 1.6 | 55.3 (≈ 193 µM) | 33.4 (≈ 117 µM) | – | inactive | > 100
inactive | inactive | inactive | inactive | – | inactive | inactive | inactive | inactive | CC(C)=C1CCC2=C(CC[C@H]3[C@](C)(CO)CCC[C@]23C)C1 | 1 | 20.2 (≈ 70 µM) | 19.7 (≈ 68.3 µM) | – | inactive | 100
inactive | inactive | inactive | inactive | – | inactive | inactive | inactive | inactive | COC(=O)[C@]1(C)CCC[C@]2(C)C3=C(CC[C@@H]12)CC(=C(C)C)CC3 | 0.4 | 19.2 (≈ 60.7 µM) | 46.6 (≈ 147 µM) | – | inactive | 100
